Measurements as given in paper PMC10586260 (ACS Omega, 2023).
Where “and” joins values, the source holds several entries; their conditions need not be identical. Identical values can stand only once. Entries after “also recorded” stand apart in the source; their conditions may differ. Like-named read-outs stand apart in the source and are kept apart here.

Legend:
PfCam3.1^R539T (MRA1240) = assay: SYBR green I antiplasmodial growth inhibition assay; format: cell-based; details: Plasmodium falciparum
MTT cytotoxicity assay [1] = format: cell-based, Human; details: human, HEK293 cells
PfINDO [2] = assay: SYBR green I antiplasmodial growth inhibition assay; format: cell-based; details: Plasmodium falciparum
MTT cytotoxicity assay [3] = format: cell-based, Human; details: human, HUH-7 cells
Pf3D7 = assay: SYBR green I antiplasmodial growth inhibition assay; format: cell-based; details: Plasmodium falciparum
[4] = system: P. falciparum strains (Pf3D7, PfINDO, PfCam3.1^R539T); assay: SYBR green I antiplasmodial assay, several strains stated together; format: cell-based; details: Plasmodium falciparum, read-out: IC50s against all three strains of Plasmodium
[5] = 700 mg dosage in humans, MDR-TB treatment; cited from earlier work
P. falciparum (MRA1240) = assay: Fixed-ratio drug combination assay; format: cell-based, Plasmodium falciparum; details: in combination with PYR, MFQ, and ART
PfGAP50 = target: T1, PfGAP50 (Plasmodium falciparum, UniProt Q8I2X3); assay: Surface plasmon resonance, PfGAP50 immobilized on CM5 chip, 1:1 binding model; details: KD (SPR, GAP50), 1:1 Langmuir binding model
T1 sequence (Q8I2X3 24-365 limits assumed): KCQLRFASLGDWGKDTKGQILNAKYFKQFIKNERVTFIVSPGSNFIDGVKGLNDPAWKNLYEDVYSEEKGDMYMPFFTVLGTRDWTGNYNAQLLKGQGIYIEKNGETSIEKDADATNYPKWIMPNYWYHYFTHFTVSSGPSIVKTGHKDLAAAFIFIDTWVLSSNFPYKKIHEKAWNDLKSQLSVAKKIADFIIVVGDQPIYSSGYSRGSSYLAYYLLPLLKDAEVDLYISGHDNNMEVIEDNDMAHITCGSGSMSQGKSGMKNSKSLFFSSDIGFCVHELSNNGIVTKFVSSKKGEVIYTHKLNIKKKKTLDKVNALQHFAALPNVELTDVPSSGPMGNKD

[6] = system: PfCam3.1^R539T early rings (0–3 h p.i.); assay: Ring-stage survival assay; format: cell-based, Plasmodium falciparum; details: 10× IC50, 6 h treatment, 66 h recovery
PfINDO [7] = assay: Giemsa microscopy of parasite morphology after treatment at IC50; format: cell-based, Plasmodium falciparum; details: ring-stage parasites (6–12 h p.i.) treated at IC50 up to 57 h
PfINDO late schizonts = assay: Egress/invasion inhibition assay; format: cell-based, Plasmodium falciparum; details: segmental schizonts, 8 h at 2× IC50, then 48 h drug free
P. bergheiANKA = assay: In vivo antimalarial study; set-up: species or system mice; details: 50 mg/kg oral, 4 consecutive days
HEK293 = assay: MTT cytotoxicity assay; format: cell-based, Human; details: for selectivity index for P. falciparum parasites: human kidney and liver cell lines vs parasite; for Selectivity index A: CC50 HEK293/IC50PfINDO
HUH-7 = assay: MTT cytotoxicity assay; format: cell-based, Human; details: CC50PfHUH7/IC50PfINDO
[8] = read-out: IC50 (nM) against Pf strains Cam3.1^R539T
[9] = read-out: IC50 (nM) against Pf strains INDO
[10] = 3D7, read-out: IC50 (nM) against Pf strains 3D7

Structure (SMILES)	IC50 (PfCam3.1^R539T (MRA1240); [8])	CC50 at 24 h (MTT cytotoxicity assay [1])	IC50 (PfINDO [2]; [9])	CC50 at 24 h (MTT cytotoxicity assay [3])	IC50 (Pf3D7; [10])	IC50 [4]	interaction by average ∑FIC (P. falciparum (MRA1240))	Kd (PfGAP50)	effect on parasite morphology and development (PfINDO [7])	effect on merozoite egress and invasion (PfINDO late schizonts)	selectivity index for P. falciparum parasites (HEK293)	also measured
C[C@@H]1CC[C@H]2[C@@H](C)C(=O)O[C@@H]3O[C@@]4(C)CC[C@@H]1[C@]32OO4 [Artemisinin]	15 ± 2 nM	> 100000 nM	10 ± 2 nM	> 100000 nM	13 ± 4 nM	–	–	–	–	–	–	–
COc1nc2ccc(Br)cc2cc1[C@@H](c1ccccc1)[C@@](O)(CCN(C)C)c1cccc2ccccc12 [Bedaquiline, (1R,2S)-1-(6-bromo-2-methoxyquinolin-3-yl)-4-(dimethylamino)-2-naphthalen-1-yl-1-phenylbutan-2-ol]	769 ± 73.6 nM	> 400000 nM	–	> 400000 nM	1210 ± 22.4 nM	≤ 1500 nM	additive (∑FIC 1–2.0)	< 75000 nM and 9270 nM	permitted parasites to develop normally while preventing merozoites from invading	schizontocidal activity; also recorded: completely prevented invasion/schizont rupture	–	Cmax [5]: 6470 ng/mL; effect on early rings in RSA [6]: showed activity against early rings; mice surviving / cured (P. bergheiANKA): three out of seven; suppression of % parasitemia (P. bergheiANKA): substantial suppression of parasitemia; also recorded: complete suppression of % parasitemia by day 19
N=C(N)NCCCCC(=O)Nc1cc(C(F)(F)F)cc(NC(=O)c2cc(C(=O)Nc3cc(C(F)(F)F)cc(NC(=O)CCCCNC(=N)N)c3O[C@@H]3CCNC3)ncn2)c1O[C@@H]1CCNC1 [Brilacidin, 4-N,6-N-bis[3-(5-carbamimidamidopentanoylamino)-2-[(3R)-pyrrolidin-3-yl]oxy-5-(trifluoromethyl)phenyl]pyrimidine-4,6-dicarboxamide]	728 ± 65.2 nM	> 200000 nM	634 ± 153 nM	> 200000 nM	405 ± 63 nM	≤ 1500 nM	additive (∑FIC 1–2.0)	< 75000 nM and 2810 nM	partial suppression of invasion	completely prevented invasion/schizont rupture	> 100 fold	effect on early rings in RSA [6]: cause retardation in the growth cycle but are not able to kill early rings
CCN(CC)CCCC(C)Nc1ccnc2cc(Cl)ccc12 (centres unmarked) [Chloroquine]	55 ± 4 nM	45700 ± 3120 nM	290 ± 20 nM	58500 ± 4730 nM	14 ± 5 nM	–	–	–	–	–	–	Selectivity index A (HEK293): 157.55; Selectivity index B (HUH-7): 201.86
Oc1cccc(C(Nc2nccs2)c2ccc3cccnc3c2O)c1 (centres unmarked) [MMV642550, 7-[(3-hydroxyphenyl)-(1,3-thiazol-2-ylamino)methyl]quinolin-8-ol]	1400 ± 97 nM	> 200000 nM	986 ± 159 nM	> 200000 nM	393 ± 6.45 nM	≤ 1500 nM	–	< 75000 nM	permitted Pf development	only partial inhibition of parasite invasion	> 100 fold	effect on merozoite egress and invasion (PfINDO late schizonts; listed as 642550): slowed the schizont rupture
NC(N)=Nc1ccc(-c2ccc(-c3ccc(N=C(N)N)c(Cl)c3)o2)cc1Cl [MMV688271, 2-[2-chloro-4-[5-[3-chloro-4-(diaminomethylideneamino)phenyl]furan-2-yl]phenyl]guanidine]	387 ± 39.6 nM	119000 ± 33700 nM	284 ± 24.7 nM	29600 ± 3760 nM	258 ± 54.2 nM	≤ 1500 nM	additive (∑FIC 1–2.0)	< 75000 nM and 20000 nM	inhibited schizont egression	schizontocidal activity; also recorded: completely prevented invasion/schizont rupture	> 100 fold	Selectivity index A (HEK293): 478.31; Selectivity index B (HUH-7): 119.08
O=C1[C@H](CC[C@H](O)c2ccc(F)cc2)[C@@H](c2ccc(O)cc2)N1c1ccc(F)cc1 [MMV1581377, (3R,4S)-1-(4-fluorophenyl)-3-[(3S)-3-(4-fluorophenyl)-3-hydroxypropyl]-4-(4-hydroxyphenyl)azetidin-2-one]	–	–	–	–	–	–	–	1160 nM	–	–	–	–
CC(C)(C)NC(=O)[C@@H]1CN(Cc2cnc3occc3c2)CCN1C[C@@H](O)C[C@@H](Cc1ccccc1)C(=O)N[C@H]1c2ccccc2C[C@H]1O [MMV1782353, (2S)-1-[(2S,4R)-4-benzyl-2-hydroxy-5-[[(1S,2R)-2-hydroxy-2,3-dihydro-1H-inden-1-yl]amino]-5-oxopentyl]-N-tert-butyl-4-(furo[2,3-b]pyridin-5-ylmethyl)piperazine-2-carboxamide]	14300 ± 210 nM	> 200000 nM	562 ± 171 nM	> 200000 nM	670 ± 70.2 nM	–	–	–	permitted Pf development	only partial inhibition of parasite invasion	> 100 fold	IC50 (PfCam3.1^R539T (MRA1240); read-out: IC50 PfCam3.1^R539T): > 1000 nM; IC50 (PfINDO [2]; read-out: IC50 PfINDO): < 1000 nM; effect on merozoite egress and invasion (PfINDO late schizonts; listed as 1782353): slowed the schizont rupture; IC50 (Pf3D7; read-out: IC50 Pf3D7): < 1000 nM
